The test system of assay [1] is Huh7 hepatocellular carcinoma cells. Put plainly: FGFR4 cell proliferation experiment, Cell Titer Glo (CTG). Format: cell-based. As to conditions: HuH-7 cells, 3 days; for IC50: concentration leading to absolute half growth inhibition; for EC50: concentration leading to half maximal growth inhibition. As for the experimental part: II. FGFR4 Cell Proliferation Experiment
Cell Titer Glo (CTG) experiment was used in the present invention to evaluate the functional effects of the compounds on cell proliferation. […] Compound-mediated inhibition of cell proliferation/survival was assessed by quantification of cellular ATP levels using CTG reagent (Promega, #G7573). The specific experimental procedure was as follows:
2. 10 μL of medium containing a compound concentration of 10 fold of its final test concentration was added;
3. The dose effect was evaluated by a 5-fold serial dilution of the test compound, starting from 10 μM.
4. After cells incubation for 3 days at 37° C. under 5% CO2, the effect of the inhibitor on cell proliferation was quantified after adding 50 μL of CTG and testing with luminescence.
(Cellular ATP, detected with luciferase, serves as a proxy for viable cell number.)

Assay [2] deals with FGFR4 (Homo sapiens, UniProt P22455). Put plainly: FGFR4 Caliper Assay (in vitro biochemical kinase analysis of FGFR4). The following applies: read-out: Enzymatic activity FGFR4 IC50. As for the experimental part: I. In Vitro Biochemical Kinase Analysis of FGFR4
FGFR4 Caliper Assay was used in the present invention to determine the inhibitory activities of the compounds against FGFR4. The detailed experimental procedure was as follows.
2. A reaction system is a mixture solution of 50 mM HEPES, pH 7.5, 1 mM DTT, 0.02% Tween 20, 0.02% BSA, 0.6% DMSO, 10 mM beta glycerol phosphate and 10 μM sodium orthovanadate and 16 mM MgCl2.
3. The reaction system was incubated at 30° C. for 40 minutes.
4. The reaction was terminated by adding a stop solution (100 mM HEPES, pH 7.5, 5% DMSO, 0.1% Caliper coating reagent, 10 mM EDTA and 0.015% Brij35).
5. The culture plate with the terminated kinase reaction was transferred to the Caliper LC 3000 workstation to read the data, the phosphorylated and unphosphorylated peptides were separated by using the Caliper microfluid migration shift technique, and the analyte was transferred by allowing a constant buffer flow through the chip, the migration of the substrate peptide was monitored by the labeled fluorescent signal, and the kinase activity was calculated by using the amount of the phosphate-based peptide formed.
6. Finally, IC50 values were determined by non-linear regression analysis of percent inhibition at different compound concentrations.

A word on the IC50: it is the concentration that gives 50% inhibition. One may read the EC50 as the midpoint of the concentration-response curve.

Sequence of FGFR4 (P22455 22-802): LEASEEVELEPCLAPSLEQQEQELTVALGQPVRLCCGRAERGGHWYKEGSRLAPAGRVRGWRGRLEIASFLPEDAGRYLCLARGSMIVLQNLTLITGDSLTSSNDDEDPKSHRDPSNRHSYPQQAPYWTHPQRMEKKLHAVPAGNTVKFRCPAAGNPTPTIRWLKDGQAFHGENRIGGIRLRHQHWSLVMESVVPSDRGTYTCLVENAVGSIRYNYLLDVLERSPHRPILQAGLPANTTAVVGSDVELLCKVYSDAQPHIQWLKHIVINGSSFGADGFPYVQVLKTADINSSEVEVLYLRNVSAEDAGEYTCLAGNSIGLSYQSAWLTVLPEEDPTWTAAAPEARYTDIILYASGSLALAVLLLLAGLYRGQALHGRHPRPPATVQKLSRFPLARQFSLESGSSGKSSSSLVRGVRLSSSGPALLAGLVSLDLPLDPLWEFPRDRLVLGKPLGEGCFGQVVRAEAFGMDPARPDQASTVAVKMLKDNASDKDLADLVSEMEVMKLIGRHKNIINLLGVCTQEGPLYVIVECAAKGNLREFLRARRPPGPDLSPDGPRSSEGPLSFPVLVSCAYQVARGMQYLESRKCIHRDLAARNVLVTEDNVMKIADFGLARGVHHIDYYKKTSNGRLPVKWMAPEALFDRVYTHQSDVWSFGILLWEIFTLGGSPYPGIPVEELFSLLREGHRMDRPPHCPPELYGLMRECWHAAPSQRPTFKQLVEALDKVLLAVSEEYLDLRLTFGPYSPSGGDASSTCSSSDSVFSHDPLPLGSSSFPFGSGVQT

In assay [1] (Homo sapiens, Huh-7, 72 h), `C=CC(=O)N[C@H]1COC[C@H]1Nc1ncc2cc(-c3c(Cl)c(OC)cc(OC)c3Cl)nc(NCC(C)(C)C)c2n1` [Example 462, N-((3R,4S)-4-((6-(2,6-dichloro-3,5-di-methoxyphenyl)-8-(neopentylamino)pyrido[3,4-d]pyrimidin-2-yl)amino)tetrahydrofuran-3-yl)acrylamide] came in with an IC50 of 38.3 nM and an EC50 of 24.6 nM. Further, the IC50 in assay [2] is 14.5 nM.
As to `C=CC(=O)N[C@H]1COC[C@H]1Nc1ncc2cc(-c3c(Cl)c(OC)cc(OC)c3Cl)nc(N3CC4(CCOCC4)C3)c2n1` [Example 776, N-((3R,4S)-4-((6-(2,6-dichloro-3,5-dimethoxyphenyl)-8-(7-oxa-2-azaspiro [3.5]nonan-2-yl)pyrido[3,4-d]pyrimi-din-2-yl)amino)tetrahydrofuran-3-yl)acrylamide], the IC50 in assay [1] worked out at 9.4 nM; in assay [2] it was 4.9 nM. Also, the midpoint of the response in assay [1], the EC50, lay at 7.9 nM.
In assay [1] (Homo sapiens, Huh-7, 72 h), `C=CC(=O)N[C@H]1COC[C@H]1Nc1ncc2cc(-c3c(Cl)c(OC)cc(OC)c3Cl)nc(C3=CCOCC3)c2n1` [Example 756, N-((3R,4S)-4-((6-(2,6-dichloro-3,5-dimethoxyphenyl)-8-(3,6-dihydro-2H-pyran-4-yl)pyrido[3,4-d]pyrimidin-2-yl)amino)tetrahydrofuran-3-yl)acryl-amide] registered an IC50 of 31 nM and an EC50 of 19 nM. In assay [2], the IC50 amounted to 20.2 nM.
For `C=CC(=O)N[C@H]1COC[C@H]1Nc1ncc2cc(-c3c(Cl)c(OC)cc(OC)c3Cl)nc(NCCc3ccccc3)c2n1` [Example 456, N-((3R,4S)-4-((6-(2,6-dichloro-3,5-di-methoxyphenyl)-8-(phenethylamino)pyrido[3,4-d]pyrimidin-2-yl)amino)tetrahydrofuran-3-yl)acrylamide], in that order: 299 nM, 163 nM and 82.4 nM.
On the same counts, the results for `C=CC(=O)Nc1cccc(C)c1Nc1cc2c(OC)nc(-c3c(Cl)c(OC)cc(OC)c3Cl)cc2cn1` [Example 9, N-(2-((7-(2,6-dichloro-3,5-dimethoxyphenyl)-5-dimethoxy-2,6-naphthyridin-3-yl)amino)-3-methylphenyl)acryl-amide] are 1050 nM, 89 nM and 138 nM.
On the same counts, the results for `C=CC(=O)N[C@H]1COC[C@H]1Nc1ncc2cc(-c3c(Cl)c(OC)cc(OC)c3Cl)nc(N3CC4(CCOCC4)C3)c2n1` [Example 675, N-((3R,4S)-4-((6-(2,6-dichloro-3,5-dimethoxyphenyl)-8-(7-oxa-2-azaspiro[3.5]nonan-2-yl)pyrido[3,4-d]pyrimidin-2-yl)amino)tetrahydrofuran-3-yl)acrylamide] are 8.7 nM, 6.2 nM and 11 nM.
With `C=CC(=O)N[C@H]1COC[C@H]1Nc1ncc2cc(-c3c(F)c(OC)cc(OC)c3F)nc(N3CCC(C)(O)C3)c2n1` (stereo partly drawn) [Example 772, N-((3R,4S)-4-((6-(2,6-difluoro-3,5-dimethoxyphenyl)-8-(3-hydroxy-3-methylpyrrolidin-1-yl)pyrido[3,4-d]py-rimidin-2-l)amino)tetrahydrofuran-3-yl)acrylamide], in assay [1] (Homo sapiens, Huh-7, 72 h), the IC50 turned out to be 8.1 nM and a half-maximal effect (EC50) was put at 6.8 nM. In addition, in assay [2], the 50% inhibitory concentration (IC50) is 2.9 nM.
For `C=CC(=O)Nc1cnn(CCOC)c1-c1ncc2cc(-c3c(Cl)c(OC)cc(OC)c3Cl)ncc2n1` [Example 715, N-(5-(6-(2,6-dichloro-3,5-dimethoxyphenyl)pyrido[3,4-d]pyrimidin-2-yl)-1-(2-methoxyethyl)-1H-pyrazol-4-yl)acrylamide], in that order: 1920 nM, 1920 nM and 62.7 nM.
On to `C=CC(=O)N[C@H]1COC[C@H]1Nc1ncc2cc(-c3c(Cl)c(OC)cc(OC)c3Cl)nc(N3CC(C)(O)C3)c2n1` [Example 664, N-((3R,4S)-4-((6-(2,6-dichloro-3,5-dimethoxyphenyl)-8-(3-hydroxy-3-meth-ylazetidin-1-yl)pyrido[3,4-d]pyrimi-din-2-yl)amino)tetrahydrofuran-3-yl)acrylamide], for which, in assay [1] (Homo sapiens, Huh-7, 72 h), the IC50 amounted to 4.9 nM and the EC50 was determined as 3.7 nM. The IC50 in assay [2] came out at 4.9 nM.
With `C=CC(=O)N[C@H]1COC[C@H]1Nc1ncc2cc(-c3c(Cl)c(OC)cc(OC)c3Cl)nc(NC3CCOC3)c2n1` (stereo partly drawn) [Example 443, N-((3R,4S)-4-((6-(2,6-dichloro-3,5-di-methoxyphenyl)-8-((tetrahydrofuran-3-yl)amino)pyrido[3,4-d]pyrimidin-2-yl)amino)tetrahydrofuran-3-yl) acrylamide], in assay [1] (Homo sapiens, Huh-7, 72 h), the IC50 stood at 70.8 nM and the EC50 came out at 15.9 nM. In addition, the IC50 in assay [2] was 8.2 nM.
On the same counts, the results for `C=CC(=O)N[C@H]1COC[C@H]1Nc1ncc2cc(-c3c(Cl)c(OC)cc(OC)c3Cl)nc(NCC3CCCC3)c2n1` [Example 454, N-((3R,4S)-4-((8-((cyclopentylmeth-yl)amino)-6-(2,6-dichloro-3,5-dimeth-oxyphenyl)pyrido[3,4-d]pyrimidin-2-yl)amino)tetrahydrofuran-3-yl)acryl-amide] are 89.2 nM, 40.8 nM and 66.9 nM.
In the case of `C=CC(=O)N[C@H]1CCOC[C@H]1Nc1ncc2cc(-c3c(F)c(OC)cc(OC)c3F)nc(N3CCOCC3)c2n1` [Example 789, N-((3S,4)S-3-((6-(2,6-difluoro-3,5-dimethoxyphenyl)-8-morpholinopy-rido[3,4-d]pyrimidin-2-yl)amino)tetra-hydro-2H-pyran-4-yl)acrylamide], the IC50 turned out to be 15.9 nM in assay [1] (Homo sapiens, Huh-7, 72 h) and 7.8 nM in assay [2]. Further, the response in assay [1] (Homo sapiens, Huh-7, 72 h) was half-maximal at 12.6 nM (EC50).
For `C=CC(=O)N[C@H]1CCOC[C@H]1Nc1ncc2cc(-c3c(F)c(OC)cc(OC)c3F)nc(N3CC4CC(C3)O4)c2n1` [Example 796, N-((3S,4S)-3-((8-(6-oxa-3-aza-bicyclo[3.1.1]heptan-3-yl)-6-(2,6-difluoro-3,5-dimethoxyphenyl)py-rido[3,4-d]pyrimidin-2-yl)a-mino)tetrahydro-2H-pyran-4-yl)acrylamide], in that order: 47.8 nM, 23 nM and 38 nM.
Regarding `C=CC(=O)N[C@H]1CCOC[C@H]1Nc1ncc2cc(-c3c(F)c(OC)cc(OC)c3F)nc(N3CC(C)(OC)C3)c2n1` [Example 790, N-((3S,4S)-3-((6-(2,6-difluoro-3,5-dimethoxyphenyl)-8-(3-methoxy-3-methylazetidin-1-yl)pyrido[3,4-d]py-rimidin-2-yl)amino)tetrahydro-2H-pyran-4-yl)acrylamide], in assay [1] (Homo sapiens, Huh-7, 72 h), the IC50 worked out at 13.6 nM and a half-maximal response (EC50) required 11.4 nM. The IC50 in assay [2] turned out to be 8.5 nM.
On to `C=CC(=O)N[C@H]1COC[C@H]1Nc1ncc2cc(-c3c(Cl)c(OC)cc(OC)c3Cl)nc(NCC)c2n1` [Example 434], for which the IC50 in assay [1] (Homo sapiens, Huh-7, 72 h) was determined as 18.2 nM; in assay [2] it was 8.4 nM. The EC50 in assay [1] (Homo sapiens, Huh-7, 72 h) came out at 9.6 nM.
In the case of `C=CC(=O)N[C@H]1COC[C@H]1Nc1ncc2cc(-c3c(Cl)c(OC)cc(OC)c3Cl)nc(N3CCC(C)(O)C3)c2n1` (stereo partly drawn) [Example 760, N-((3R,4S)-4-((6-(2,6-dichloro-3,5-dimethoxyphenyl)-8-(3-hydroxy-3-methylpyrrolidin-1-yl)pyrido[3,4-d]py-rimidin-2-yl)amino)tetarhydrofuran-3-yl)acrylamide], the IC50 in assay [1] (Homo sapiens, Huh-7, 72 h) turned out to be 6.7 nM; in assay [2] it was 2.9 nM. Moreover, the response in assay [1] (Homo sapiens, Huh-7, 72 h) was half-maximal at 5.5 nM (EC50).
On the same counts, the results for `C=CC(=O)N[C@H]1COC[C@H]1Nc1ncc2cc(-c3c(Cl)c(OC)cc(OC)c3Cl)nc(OCC3CC3)c2n1` [Example 498, N-((3R,4S)-4-((8-(cyclopropylmethoxy)-6-(2,6-dichloro-3,5-dimethoxyphen-nyl)pyrido[3,4-d]pyrimidin-2-yl)amino)tetrahydrofuran-3-yl)acrylamide] are more than 10000 nM, 8800 nM and 2390 nM.
For `C=CC(=O)N[C@H]1COC[C@H]1Nc1ncc2cc(-c3c(Cl)c(OC)cc(OC)c3Cl)nc(NC3CC3)c2n1` [Example 655, N-((3R,4S)-4-((8-(cyclopropylamino)-6-(2,6-dichloro-3,5-dimethoxyphen-yl)pyrido[3,4-d]pyrimidin-2-yl)amino)tetrahydrofuran-3-yl)acrylamide], in that order: 68.4 nM, 8 nM and 28 nM.
For `C=CC(=O)N[C@H]1COC[C@H]1Nc1ncc2cc(-c3c(Cl)c(OC)cc(OC)c3Cl)nc(N3CCC(OC)C3)c2n1` (stereo partly drawn) [Example 677, N-((3R,4S)-4-((6-(2,6-dichloro-3,5-dimethoxyphenyl)-8-(3-methoxypyrro-lidin-1-yl)pyrido[3,4-d]pyrimidin-2-yl)amino)tetrahydrofuran-3-yl)acryl-amide], in that order: 5.3 nM, 7.4 nM and 3.7 nM.

(Values after patent US11555036B2, “FGFR4 inhibitor, preparation method therefor and pharmaceutical use thereof” (Abbisko Therapeutics Co., Ltd., priority 2016, dated 2023).)
